Assay results published in US8946438B2, “Benzamides, production thereof, and use thereof as medicaments” (Boehringer Ingelheim International GmbH, priority 2008, dated 2015).

Biological target: p38 MAP-kinase (Homo sapiens, UniProt Q16539)
Assay: Enzymatic assay: inhibition of p38 MAP-kinase (phosphorylation of GST-tagged ATF2, chemoluminescence bead readout)
Type: biochemical
Details: inhibitor 1 μM; activated p38 MAP-kinase 1 nM; 4 h preincubation; ATP 100 μM; ATF2 10 nM; read-out: % inhibitory effect at 1 μM
Procedure, shortened: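 Activated human p38 MAP-kinase (1 nM) preincubated 4 h at ambient temperature with compound at 1 μM in HEPES pH 7, MgCl2, DTT, Tween20. Then reacted 1 h with GST-ATF2 (10 nM) and ATP (100 μM). Phospho-ATF2 read by bead chemoluminescence at 520-620 nm, given as % inhibition at 1 μM versus kinase-free background.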

Chain of p38 MAP-kinase (Q16539 whole entry): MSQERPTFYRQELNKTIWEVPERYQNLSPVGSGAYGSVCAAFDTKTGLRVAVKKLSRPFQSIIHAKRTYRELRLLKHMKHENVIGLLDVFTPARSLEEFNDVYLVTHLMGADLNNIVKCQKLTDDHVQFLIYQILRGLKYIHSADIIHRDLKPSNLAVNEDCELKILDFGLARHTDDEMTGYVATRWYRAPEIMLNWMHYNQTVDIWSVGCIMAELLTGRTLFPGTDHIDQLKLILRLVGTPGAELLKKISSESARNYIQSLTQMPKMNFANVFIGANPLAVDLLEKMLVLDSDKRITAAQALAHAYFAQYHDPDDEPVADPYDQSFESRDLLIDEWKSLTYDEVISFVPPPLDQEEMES

inhibition at 1 µM [%] | SMILES
99.2 | COc1c(NC(=O)c2ccc(Cl)c(Oc3cc(NC4CCNCC4)ncn3)c2)cc(C(C)(C)C)cc1NS(C)(=O)=O [Example 11, N-(5-tert-butyl-3-methanesulphonylamino-2-methoxy-phenyl)-4-chloro-3-[6-(piperidin-4-ylamino)-pyrimidin-4-yloxy]-benzamide]
97.5 | COc1c(NC(=O)c2ccc(C)c(Oc3ccnc(CC4CCCN(C)CC4)c3)c2)cc(C(C)(C)C)cc1NS(C)(=O)=O (stereo not drawn) [Example 12, N-(5-tert-butyl-3-methanesulphonylamino-2-methoxy-phenyl)-4-methyl-3-[2-(1-methyl-azepan-4-ylmethyl)-pyridin-4-yloxy]-benzamide]
98.2 | COc1c(CO)cc(C(C)(C)C)cc1NC(=O)c1ccc(C)c(Oc2ccnc(CN3CCN(C)CC3)n2)c1 [Example 13, N-(5-tert-butyl-3-hydroxymethyl-2-methoxy-phenyl)-4-methyl-3-[2-(4-methyl-piperazin-1-ylmethyl)-pyrimidin-4-yloxy]-benzamide]
